pIC50: −log10 of the molar value. Where a name gives a salt, the structure may show the parent alone.
How the values were obtained:
[1] = test system: Platelet aggregation in dog PRP; test: In-Vitro Platelet Aggregation in PRP (ADP induced); type: cell-based; conditions: Canis lupus familiaris; for pIC50: ADP 50 μm, 37° C.; for inhibition at 10 µM: ADP, test concentration 1 × 10^-5
Procedure: In-Vitro Platelet Aggregation in PRP
(§1) Healthy male or female dogs were fasted for 8 hours prior to drawing blood; then 30 ml whole blood was collected using a butterfly needle and 30 cc plastic syringe with 3 ml of 0.129M buffered sodium citrate (3.8%). The syringe was rotated carefully as blood was drawn to mix the citrate. Platelet-rich plasma (PRP) was prepared by centrifugation at 975×g for 3.17 minutes at room temperature, allowing the centrifuge to coast to a stop without braking. The PRP was removed from the blood with a plastic pipette and placed in a plastic capped, 50 ml Corning conical sterile centrifuge tube which was held at room temperature. Platelet poor plasma (PPP) was prepared by centrifuging the remaining blood at 2000×g for 15 minutes at room temperature allowing the centrifuge to coast to a stop without braking. The PRP was adjusted with PPP to a count of 2-3×10^8 platelets per ml. 400 for 5-(p-cyanophenyl)pentanoic acid in Section C of Example 1.
as §1, with “400 μl of the PRP preparation and 50 μl of the compound to be tested or saline were preincubated” for “400”, “1 minute at 37° C.” for “5-(p-cyanophenyl)pentanoic acid”, “a BioData aggregometer (BioData, Horsham, Pa.). 50 μl” for “Section C”, “adenosine 5'diphosphate (ADP) (50 μm final concentration) was added to the cuvettes and the aggregation was monitored for 1 minute. All compounds are tested in duplicate. Results are calculated as follows:” for “Example 1.”
Percent of control=[(maximal OD minus initial OD of compound) divided by
(maximal OD minus initial OD of control saline)]×100. The %
inhibition=100-(percent of control).

[2] = molecular target: T1, fibrinogen binding to platelets (gpIIb/IIIa) (Homo sapiens, UniProt P05106+P08514); test: Fibrinogen Binding Assay (125I-fibrinogen binding to ADP-activated platelets); conditions: ADP 10 μM, 125I-fibrinogen 0.3 μM, 40 min at 37° C., read-out: Human Fg binding IC50
T1 construct: endogenous in cells
Procedure: Fibrinogen binding was performed essentially as described by Plow et al., Blood 70, 110-115 (1987). Briefly, blood from humans who had not been given any antiplatelet drugs in the previous two weeks was collected into 1/10th volume of CCD buffer (100 mM sodium citrates, 136 mM glucose, pH 6.5). The blood was centrifuged for 3 min at 1000×g and platelet rich plasma was transferred to a plastic tube with a plastic pipet and placed on ice. After 15 minutes, 1/2 volume of ice cold CCD buffer was added and the sample was centrifuged at 900×g for 10 min at 2° C. The supernatant was decanted and the platelet pellet was gently resuspended in 1/2 the original volume of ice cold modified Tyrode's buffer (137 mM NaCl, 2.6 mM KCl, 12 mM NaHCO3, 5.5 mM glucose, 15 mM HEPES, 0.5% BSA, pH 7.4). After incubating for 30 minutes at 37° C., the platelet count was adjusted to 4×10^8 platelets/ml with modified Tyrode's buffer. To test samples (final concentration=1×10^8 platelets/ml) were added in sequence: ADP (10 μM), CaCl2 (2 mM), test compound, and ^125 I-fibrinogen (0.3 μM) to the aforesaid final concentrations in a volume of 200 μl. The samples were incubated for 40 min at 37° C. and 50 μl aliquots were centrifuged at 8,000×g through a 20% sucrose solution (400 μl). The tubes were quick frozen and the tips containing the platelet pellet were cut and assayed for bound ^125 I-fibrinogen by gamma scintillation counting. Specific binding was determined in each test by subtracting from the total binding the amount of ^125 I-fibrinogen bound in the presence of a 60-fold excess of unlabeled fibrinogen.

[3] = test system: ex vivo collagen induced platelet aggregation; test: Inhibition of ex vivo collagen induced aggregation; type: in vivo, dog (Beagle); conditions: dog, IV
Procedure: INHIBITION OF EX VIVO COLLAGEN INDUCED AGGREGATION BY COMPOUNDS OF THE INVENTION
PURPOSE--The purpose of this assay is to determine the effects of antiplatelet compounds on ex vivo collagen induced platelet aggregation when administered either intravenously or orally to dogs.
Pretreatment (control) blood samples are drawn from either conscious or anesthetized dogs (Beagles) and centrifuged to prepare platelet rich plasma (PRP). Aggregatory response to collagen is measured in an aggregometer and used as Control. Compounds are administered, either intragasterically (either by capsule or stomach tube or intravenously. Blood samples are drawn at predetermined intervals after compound administration, PRP prepared and aggregation to collagen determined. Compound inhibition of aggregation is determined by comparing the aggregation response after compound administration to the pretreatment response. The study is continued for a maximum of 24 hours or until the platelet aggregation returns to control levels. (If aggregation is still inhibited after 7 hours, a blood sample is drawn the following morning and tested.) Duration of activity is determined by the length of time platelet aggregation is inhibited after compound administration.

[4] = Canine intravenous infusion model; type: in vivo

T1 sequence (P08514 32-887 limits assumed): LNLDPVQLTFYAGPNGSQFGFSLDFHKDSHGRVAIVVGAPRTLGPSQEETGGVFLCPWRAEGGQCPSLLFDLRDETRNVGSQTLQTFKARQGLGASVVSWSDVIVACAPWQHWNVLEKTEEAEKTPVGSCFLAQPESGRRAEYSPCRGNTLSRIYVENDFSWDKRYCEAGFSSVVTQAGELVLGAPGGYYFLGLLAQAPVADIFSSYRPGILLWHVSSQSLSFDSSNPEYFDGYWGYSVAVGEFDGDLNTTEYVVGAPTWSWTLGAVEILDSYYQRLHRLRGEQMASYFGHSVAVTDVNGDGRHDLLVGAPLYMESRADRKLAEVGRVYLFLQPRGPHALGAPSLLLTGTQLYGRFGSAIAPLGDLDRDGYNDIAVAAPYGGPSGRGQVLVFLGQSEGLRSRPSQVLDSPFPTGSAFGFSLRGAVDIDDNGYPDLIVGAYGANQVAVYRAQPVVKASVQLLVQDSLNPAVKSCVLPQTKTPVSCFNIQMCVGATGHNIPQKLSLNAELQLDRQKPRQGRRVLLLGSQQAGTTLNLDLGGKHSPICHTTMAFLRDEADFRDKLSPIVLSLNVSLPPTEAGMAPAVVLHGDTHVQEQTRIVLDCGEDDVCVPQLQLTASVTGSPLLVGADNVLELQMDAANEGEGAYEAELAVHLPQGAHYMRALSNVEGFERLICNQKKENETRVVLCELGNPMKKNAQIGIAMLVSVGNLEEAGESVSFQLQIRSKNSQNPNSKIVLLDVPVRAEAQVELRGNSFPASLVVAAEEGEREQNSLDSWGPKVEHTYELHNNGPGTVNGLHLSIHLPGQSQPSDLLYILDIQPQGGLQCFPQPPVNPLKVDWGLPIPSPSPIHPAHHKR
T1 sequence (P08514 891-1039 partner limits assumed): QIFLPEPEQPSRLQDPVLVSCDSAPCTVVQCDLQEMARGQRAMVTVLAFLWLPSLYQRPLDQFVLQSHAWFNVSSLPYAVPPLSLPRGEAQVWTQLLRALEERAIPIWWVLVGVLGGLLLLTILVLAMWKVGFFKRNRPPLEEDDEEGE
T1 sequence (P05106 27-788): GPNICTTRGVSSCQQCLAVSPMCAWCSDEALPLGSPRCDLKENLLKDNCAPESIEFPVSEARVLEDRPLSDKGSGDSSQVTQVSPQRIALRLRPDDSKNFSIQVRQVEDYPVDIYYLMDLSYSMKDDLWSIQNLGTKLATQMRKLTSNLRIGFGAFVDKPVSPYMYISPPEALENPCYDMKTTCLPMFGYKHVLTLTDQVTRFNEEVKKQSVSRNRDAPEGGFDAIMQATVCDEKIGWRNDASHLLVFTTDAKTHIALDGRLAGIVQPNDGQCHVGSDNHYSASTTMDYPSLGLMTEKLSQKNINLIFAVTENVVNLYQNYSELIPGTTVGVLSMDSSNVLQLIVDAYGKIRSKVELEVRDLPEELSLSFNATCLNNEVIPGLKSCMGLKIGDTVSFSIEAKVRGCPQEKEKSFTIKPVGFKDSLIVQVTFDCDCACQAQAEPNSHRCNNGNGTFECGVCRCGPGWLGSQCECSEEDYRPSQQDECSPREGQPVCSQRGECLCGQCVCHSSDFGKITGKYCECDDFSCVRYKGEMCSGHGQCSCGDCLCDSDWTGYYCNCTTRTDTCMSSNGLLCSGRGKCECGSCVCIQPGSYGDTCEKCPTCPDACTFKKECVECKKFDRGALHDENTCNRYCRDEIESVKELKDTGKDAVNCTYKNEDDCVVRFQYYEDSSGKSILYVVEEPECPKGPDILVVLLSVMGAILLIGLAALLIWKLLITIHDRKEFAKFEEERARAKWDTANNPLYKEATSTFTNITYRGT

Row | Structure (SMILES) | pIC50 [1] | inhibition at 10 µM [1] | pIC50 [2] | Ex-vivo collagen induced aggregation, Max % Inhibition ([3]; 0.005 mg/kg) | Ex-vivo collagen induced aggregation, Max % Inhibition ([3]; 0.01 mg/kg) | Ex-vivo collagen induced aggregation, Max % Inhibition ([3]; 0.1 mg/kg) | ED50 [4] | Ex-vivo collagen induced aggregation, Max % Inhibition ([3]; 0.003 mg/kg) | Ex-vivo collagen induced aggregation, Max % Inhibition ([3]; 0.006 mg/kg)
1 | N=C(N)c1ccc(C#CCCC(=O)N[C@@H](CC(=O)O)C(=O)N[C@@H](Cc2ccccc2)C(=O)O)cc1 [N-[5-[4-(aminoiminomethyl)phenyl]-1-oxo-4-pentynyl]-N-L-α-aspartyl-L-phenylalanine] | 7.05 | 100% | 8.22 | 29% | 83% | 100% |  |  | 
2 | N=C(N)c1ccc(CCCCC(=O)N[C@@H](CC(=O)O)C(=O)N[C@@H](Cc2ccccc2)C(=O)O)cc1 [N-[N-[5-[4-(aminoiminomethyl)phenyl]-1-oxopentyl]-L-α-aspartyl]-L-phenylalanine] |  |  |  |  |  |  | 0.32 µg/kg/min |  | 
3 | N=C(N)c1ccc(CCCCC(=O)N[C@@H](CC(=O)O)C(=O)N[C@@H](Cc2ccccc2)C(=O)O)cc1 [N-[N-[5-[4-aminoiminomethyl)phenyl-1-oxopentyl]-L-α-aspartyl]-L-phenylalanine, acetate salt] | 7.28 | 100% | 8.08 |  |  |  |  | 31% | 84%
4 | N=C(N)c1cccc(/C=C\CCCC(=O)N[C@@H](CC(=O)O)C(=O)N[C@@H](Cc2ccccc2)C(=O)O)c1 [N-[N-[6-[3-(aminoiminomethyl)phenyl]-1-oxo-5Z-hexenyl]-L-α-aspartyl]-L-phenylalanine] | 5.37 | 100% | 6.22 |  |  |  |  |  | 

From patent publication US5481021A, “Phenyl amidines derivatives useful as platelet aggregation inhibitors” (G. D. Searle & Co., priority 1994, dated 1996)
